Experimental data published in the NIST ThermoML archive (doi:10.1016/j.jct.2009.05.001).
Numbers after ± are expanded uncertainties.

Experiment: xn = mol fraction of the nth substance listed
Conditions: 101 kPa, Liquid; for speed of sound: Sing-around technique in a fixed-path interferometer; for mass density: Vibrating tube method

ClC(Cl)C(Cl)Cl [1,1,2,2-tetrachloroethane] + CCCCCCO
Conditions | mass density, 308.15 K [kg/m3] | mass density, 313.15 K [kg/m3] | speed of sound, 308.15 K [m/s] | speed of sound, 313.15 K [m/s]
x1 = 0.0688 | 853.014 ± 0.18 | 849.095 ± 0.18 | 1241.8 ± 0.82 | 1225.3 ± 0.81
x1 = 0.123 | 889.246 ± 0.18 | 885.104 ± 0.18 | 1220.7 ± 0.81 | 1204.1 ± 0.8
x1 = 0.2457 | 973.918 ± 0.17 | 969.244 ± 0.17 | 1176.4 ± 0.8 | 1160 ± 0.79
x1 = 0.3618 | 1057.58 ± 0.18 | 1052.37 ± 0.18 | 1138.6 ± 0.78 | 1122.3 ± 0.78
x1 = 0.4502 | 1123.79 ± 0.21 | 1118.17 ± 0.21 | 1112.2 ± 0.78 | 1096 ± 0.77
x1 = 0.5583 | 1208.04 ± 0.24 | 1201.9 ± 0.24 | 1082.7 ± 0.77 | 1066.7 ± 0.76
x1 = 0.6518 | 1283.92 ± 0.28 | 1277.31 ± 0.27 | 1060 ± 0.76 | 1044.2 ± 0.75
x1 = 0.7068 | 1329.98 ± 0.3 | 1323.07 ± 0.3 | 1047.9 ± 0.76 | 1032.3 ± 0.75
x1 = 0.7419 | 1360.06 ± 0.32 | 1352.96 ± 0.31 | 1040.7 ± 0.75 | 1025.1 ± 0.75
x1 = 0.7797 | 1392.95 ± 0.33 | 1385.63 ± 0.33 | 1033.5 ± 0.75 | 1018 ± 0.75
x1 = 0.8315 | 1438.91 ± 0.35 | 1431.3 ± 0.35 | 1024.4 ± 0.75 | 1009.1 ± 0.74
x1 = 0.8718 | 1475.7 ± 0.37 | 1467.85 ± 0.37 | 1018 ± 0.75 | 1002.8 ± 0.74
x1 = 0.9179 | 1518.39 ± 0.4 | 1510.31 ± 0.39 | 1012.1 ± 0.74 | 997.14 ± 0.74
x1 = 0.9504 | 1549.36 ± 0.41 | 1541.12 ± 0.41 | 1009.1 ± 0.74 | 994.34 ± 0.74
x1 = 1 | 1597.75 ± 0.39 | 1589.36 ± 0.39 | 1008.9 ± 0.74 | 994.15 ± 0.74

BrCCBr [1,2-dibromoethane] + CCCCCCO
Conditions | mass density, 308.15 K [kg/m3] | mass density, 313.15 K [kg/m3] | speed of sound, 308.15 K [m/s] | speed of sound, 313.15 K [m/s]
x1 = 0.0402 | 845.2 ± 0.23 | 841.335 ± 0.23 | 1246.8 ± 0.82 | 1230.7 ± 0.82
x1 = 0.0682 | 871.58 ± 0.23 | 867.573 ± 0.23 | 1231.5 ± 0.8 | 1215.3 ± 0.81
x1 = 0.1276 | 929.152 ± 0.22 | 924.828 ± 0.22 | 1200.8 ± 0.8 | 1184.8 ± 0.8
x1 = 0.2056 | 1008.3 ± 0.23 | 1003.54 ± 0.22 | 1163.8 ± 0.79 | 1148.2 ± 0.79
x1 = 0.2686 | 1075.32 ± 0.25 | 1070.19 ± 0.25 | 1136.5 ± 0.78 | 1121.2 ± 0.78
x1 = 0.3892 | 1211.59 ± 0.3 | 1205.72 ± 0.29 | 1090.4 ± 0.77 | 1075.6 ± 0.77
x1 = 0.4277 | 1258.28 ± 0.33 | 1252.15 ± 0.33 | 1077 ± 0.76 | 1062.5 ± 0.76
x1 = 0.5444 | 1406.53 ± 0.39 | 1399.6 ± 0.39 | 1041.2 ± 0.75 | 1027.1 ± 0.75
x1 = 0.6405 | 1539.27 ± 0.46 | 1531.62 ± 0.46 | 1016.5 ± 0.75 | 1003 ± 0.74
x1 = 0.7326 | 1676.75 ± 0.54 | 1668.38 ± 0.53 | 996.88 ± 0.74 | 983.86 ± 0.74
x1 = 0.8519 | 1871.88 ± 0.64 | 1862.55 ± 0.64 | 978.58 ± 0.73 | 966.15 ± 0.73
x1 = 0.9273 | 2006.87 ± 0.72 | 1996.95 ± 0.71 | 971.93 ± 0.73 | 959.29 ± 0.73
x1 = 0.9587 | 2066.14 ± 0.76 | 2055.98 ± 0.76 | 970.13 ± 0.73 | 957.92 ± 0.73
x1 = 0.9782 | 2104.45 ± 0.79 | 2094.14 ± 0.78 | 969.05 ± 0.73 | 956.68 ± 0.73
x1 = 1 | 2148.2 ± 0.71 | 2137.69 ± 0.7 | 968.69 ± 0.73 | 956.08 ± 0.73

ClCCCl [1,2-dichloroethane] + CCCCCCO
Conditions | mass density, 308.15 K [kg/m3] | mass density, 313.15 K [kg/m3] | speed of sound, 308.15 K [m/s] | speed of sound, 313.15 K [m/s]
x1 = 0.037 | 817.675 ± 0.15 | 813.926 ± 0.15 | 1262.4 ± 0.82 | 1246.1 ± 0.81
x1 = 0.0769 | 828.456 ± 0.14 | 824.595 ± 0.14 | 1254.6 ± 0.82 | 1238.5 ± 0.81
x1 = 0.1499 | 848.617 ± 0.14 | 844.565 ± 0.14 | 1240.1 ± 0.81 | 1223.2 ± 0.81
x1 = 0.2147 | 867.202 ± 0.14 | 863.005 ± 0.14 | 1226.8 ± 0.81 | 1210.1 ± 0.8
x1 = 0.2935 | 891.704 ± 0.13 | 887.346 ± 0.13 | 1212.5 ± 0.8 | 1195.8 ± 0.8
x1 = 0.3952 | 926.131 ± 0.12 | 921.594 ± 0.12 | 1195.1 ± 0.8 | 1177.8 ± 0.79
x1 = 0.4532 | 947.081 ± 0.12 | 942.428 ± 0.12 | 1185.4 ± 0.8 | 1167.5 ± 0.79
x1 = 0.5596 | 988.685 ± 0.12 | 983.815 ± 0.12 | 1169.3 ± 0.79 | 1151.5 ± 0.79
x1 = 0.6113 | 1010.54 ± 0.12 | 1005.54 ± 0.12 | 1162 ± 0.79 | 1144.6 ± 0.78
x1 = 0.6971 | 1049.83 ± 0.14 | 1044.5 ± 0.14 | 1153.5 ± 0.79 | 1135.8 ± 0.78
x1 = 0.7791 | 1091.94 ± 0.17 | 1086.13 ± 0.16 | 1148.8 ± 0.78 | 1131.2 ± 0.78
x1 = 0.8563 | 1135.2 ± 0.19 | 1128.8 ± 0.19 | 1148 ± 0.78 | 1129 ± 0.78
x1 = 0.9335 | 1184.46 ± 0.22 | 1177.4 ± 0.21 | 1151.1 ± 0.79 | 1128.9 ± 0.78
x1 = 0.979 | 1215.34 ± 0.24 | 1207.97 ± 0.23 | 1152.8 ± 0.79 | 1132.9 ± 0.78
x1 = 1 | 1230.88 ± 0.2 | 1223.41 ± 0.19 | 1155.3 ± 0.8 | 1136.2 ± 0.78

CCCCCCO [hexan-1-ol] + BrCCBr
x2 = 0
Conditions | mass density [kg/m3] | speed of sound [m/s]
308.15 K | 808.056 ± 0.14 | 1270.2 ± 0.82
313.15 K | 804.397 ± 0.14 | 1253.6 ± 0.82

CCCCCCO [hexan-1-ol] + ClC(Cl)C(Cl)Cl
x2 = 0
Conditions | mass density [kg/m3] | speed of sound [m/s]
308.15 K | 808.056 ± 0.14 | 1270.2 ± 0.82
313.15 K | 804.397 ± 0.14 | 1253.6 ± 0.82

CCCCCCO [hexan-1-ol] + ClCCCl
x2 = 0
Conditions | mass density [kg/m3] | speed of sound [m/s]
308.15 K | 808.056 ± 0.14 | 1270.2 ± 0.82
313.15 K | 804.397 ± 0.14 | 1253.6 ± 0.82
